EC50 and efflux ratio data for four compounds are collected here from patent publication US11926612B2, “Heterocyclic apelin receptor (APJ) agonists and uses thereof” (Research Triangle Institute, priority 2016, dated 2024).

Each structure is given as a SMILES string.

One series concerns the target T1, apelin receptor (APJ) (Homo sapiens, UniProt P35414).
T1 sequence (P35414 1-380): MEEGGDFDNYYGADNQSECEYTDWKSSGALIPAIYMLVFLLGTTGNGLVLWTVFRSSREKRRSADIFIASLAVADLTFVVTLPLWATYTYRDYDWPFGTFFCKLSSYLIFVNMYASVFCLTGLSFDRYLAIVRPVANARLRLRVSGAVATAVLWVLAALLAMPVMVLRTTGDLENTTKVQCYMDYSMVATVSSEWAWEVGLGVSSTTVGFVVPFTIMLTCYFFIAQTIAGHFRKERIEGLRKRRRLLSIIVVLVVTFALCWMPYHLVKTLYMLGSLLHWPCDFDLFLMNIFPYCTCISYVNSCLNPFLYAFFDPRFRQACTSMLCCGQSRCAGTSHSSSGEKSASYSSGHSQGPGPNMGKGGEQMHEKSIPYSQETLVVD
The series can be described thus: in vitro activity as apelin agonists (methods of Giddings et al.; Apelin-13 positive control). The format is cell-based. The note with it: apelin agonist activity, average; read-out: EC50 (nM) Ave. An excerpt:
The compounds above were studied for their in vitro activity as apelin agonists using the methods described by Giddings et al. Giddings et al., 2010 Int J High Thro Screen. 1:39-47, the contents of which are hereby incorporated by reference in its entirety. The methods described in Giddings et al. were used as described and Apelin-13 was a positive control.

A short description of series [1]: Cellular uptake assay: Caco-2 monolayer permeability (A-to-B / B-to-A). The format is in vitro ADME. To be noted: human, Papp (B-to-A)/Papp (A-to-B), Caco-2, 5 μM, pH 7.4. How it is done: Caco-2 cells (clone C2BBe1) were obtained from American Type Culture Collection (Manassas, VA). Cell monolayers were grown to confluence on collagen-coated, microporous, polycarbonate membranes in 12-well Costar Transwell plates. Details of the plates and their certification are shown below. The permeability assay buffer was Hanks' balanced salt solution (HBSS) containing 10 mM HEPES and 15 mM glucose at a pH of 7.4. The buffer in the receiver chamber also contained 1% bovine serum albumin. The dosing solution concentration was 5 μM for each test article in the assay buffer. Cell monolayers were dosed on the apical side (A-to-B) or basolateral side (B-to-A) and incubated at 37° C. with 5% CO2 in a humidified incubator. Samples were taken from the donor and receiver chambers at 120 minutes. Each determination was performed in duplicate. After the experiment, all assay buffers were removed from the inserts. Cell monolayers were dosed with blank 500 μM lucifer yellow on the A-to-B side and blank HBSS on the B-to-A side and incubated at 37° C. Samples were taken from the B-to-A side at 60 minutes. The flux of lucifer yellow was measured for each monolayer to ensure no damage was inflicted to the cell monolayers during the flux period. All samples were analyzed by LC-MS/MS using electrospray ionization. The apparent permeability (Papp) and percent recovery were calculated as follows: Papp=(dCr/dt)×Vr/(A×CA) (1) Percent Recovery=100×((Vr×Cr^final)+(Vd×Cd^final))/(Vd×CN) (2)
Where, dCr/dt is the slope of the cumulative concentration in the receiver compartment versus time in M s^−1;
Vr is the volume of the receiver compartment in cm^3;
Vd is the volume of the donor compartment in cm^3;
A is the area of the insert (1.13 cm^2 for 12-well Transwell);
CA is the average of the nominal dosing concentration and the measured 120-minute donor concentration in μM;
CN is the nominal concentration of the dosing solution in M;
Cr^final is the cumulative receiver concentration in M at the end of the incubation period;
Cd^final is the concentration of the donor in μM at the end of the incubation period.
Efflux ratio (ER) is defined as Papp (B-to-A)/Papp (A-to-B).
Absorption Potential Classification:
Papp (A-to-B)<1.0×10^−6 cm/s: Low
Papp (A-to-B) ≥1.0×10^−6 cm/s: High
Significant Efflux is defined as: ER≥2.0 and Papp (B-to-A)≥1.0×10^−6 cm/
(Caco-2 monolayers are a common model of the intestinal barrier.)

For the compound `O=C(O)C[C@H](CCN1CCCC(F)(F)C1)NC(=O)c1nc(C2CCCC2)n(-c2ccccc2C(F)(F)F)n1` [compound 461, (3S)-3-({5-cyclopentyl-1-[2-(trifluoromethyl)phenyl]-1H-1,2,4-triazol-3-yl}formamido)-5-(3,3-difluoropiperidin-1-yl)pentanoic acid], at apelin receptor (APJ), the EC50 was 46 nM. Further, the efflux ratio at 120 min, 5 μM in series [1] is 7.

On to `O=C(C[C@H](CCN1CCCC(F)(F)C1)NC(=O)c1nc(-c2ncccc2C(F)(F)F)n(C2CCCC2)n1)NC1CCC1` [compound 530, (3S)-N-cyclobutyl-3-({1-cyclopentyl-5-[3-(trifluoromethyl)pyridin-2-yl]-1H-1,2,4-triazol-3-yl}formamido)-5-(3,3-difluoropiperidin-1-yl)pentanamide], for which, on apelin receptor (APJ), the EC50 is 7.5 nM. The efflux ratio at 120 min, 5 μM in series [1] came out at 46.

Consider `O=C(N[C@@H](CCN1CCCC(F)(F)C1)Cc1nnn[nH]1)c1nc(C2CCCC2)n(-c2ccccc2C(F)(F)F)n1` [compound 616, 5-cyclopentyl-N-[(2S)-4-(3,3-difluoropiperidin-1-yl)-1-(1H-1,2,3,4-tetrazol-5-yl)butan-2-yl]-1-[2-(trifluoromethyl)phenyl]-1H-1,2,4-triazole-3-carboxamide], for which the EC50 at apelin receptor (APJ) worked out at 9 nM. For the same compound, the efflux ratio at 120 min, 5 μM in series [1] worked out at 17.

As for `O=C(C[C@H](CCN1CCCC(F)(F)C1)NC(=O)c1cn(-c2ccccc2C(F)(F)F)c(C2CCCC2)n1)NC1CCC1` [compound 472, (3S)-N-cyclobutyl-3-({2-cyclopentyl-1-[2-(trifluoromethyl)phenyl]-1H-imidazol-4-yl}formamido)-5-(3,3-difluoropiperidin-1-yl)pentanamide], the EC50 on apelin receptor (APJ) came to 15 nM. In addition, the efflux ratio at 120 min, 5 μM in series [1] was 4.

As a reminder, the EC50 is the midpoint of the concentration-response curve. Broadly, the efflux ratio is the permeability from basolateral to apical divided by that in the opposite direction, in the common usage.
